# Test results from patent US20230202973A1, “BARNESIN A, DERIVATIVES AND USES THEREOF” (Leibniz-Institut Für Naturstoff-Forschung Und …, priority 2018, published 2023).
# Square brackets hold non-standard residues; d marks the D form. Peptide text beside a SMILES is read from it. * marks the point of attachment. Sta = CC(C)C[C@H](N)[C@@H](O)CC(=O)O; Isovaleryl = CC(C)CC(=O)*
# Assays:
# [1] = Glutathione (GSH) assay; assay type: in vitro ADME; conditions: relative to t=0; for Area rel. [%] (GSH assay, NC): negative control: test item in phosphate buffer without GSH, time 90 min; for Area rel. [%] (GSH assay): with GSH, 37° C.
# Method: Procedure: A standard GSH assay includes a phosphate buffer (720 μL), a GSH solution (40 μL, 100 mM) and the test solution of the test compound (20 μM in 10% DMSO in phosphate buffer (100 mM, pH 7.4)). As negative control (NC) serves the test item (20 μM in 10% DMSO in phosphate buffer (100 mM, pH 7.4) in phosphate buffer (760 μL).
# Samples are prepared as follows: phosphate buffer (720 μL) and GSH solution (40 μL, 100 mM) were preincubated at 37° C., and 40 μL of the test item solution (or internal standard) added. Then […] of the assay mixture were mixed with 100 μL ACN were at the following time points: t=0, 30 and 90 min; in case of the test item, t=0 and 90 min in case of PC or NC. The samples were mixed for 2 min at 150 rpm, centrifuged at 16.1 (krcf). 5 μL of each samples were injected to a UPLC/HRMS system. The peak areas of the extracted ion chromatograms were determined using the standard software.
# [2] = Microsome stability assay; assay type: in vitro ADME; conditions: for Area rel. [%] (liver microsomes, PC): positive control, relative to t=0; for Area rel. [%] (liver microsomes, NC): 90 min, 1 µM, pH 7.4
# Method: Microsome Stability Assay The liver is the main organ of drug metabolism in the body. Subcellular fractions such as liver microsomes are useful in vitro models of hepatic clearance as they contain many of the drug metabolising enzymes found in the liver. Liver microsomes are subcellular fractions which contain membrane bound drug metabolising enzymes. The microsomes are incubated with the test compound at 37° C. in the presence of the co-factors, which initiates the reaction. The reaction is terminated by the addition of organic solvents containing internal standard. Following centrifugation, the supernatant is analysed on the LC-MS/MS. The disappearance of test compound is monitored over certain time period. Here, a microsome stability assay was used to investigate the metabolism of the compounds; using this assay it is possible to measure in vitro the intrinsic clearance or to identify metabolites formed. For a standard assay the following solutions were used: 360 μL Microsomal solution (1.1 mg/mL in phosphate buffer), 360 μL NADP-regeneration mix (containing NADP (10 mM), MgCl2 (50 mM), glucose-6-phosphate (50 mM), glucose-6-phosphate dehydrogenase (50 U/ml)) and 40 μL phosphate buffer (100 mM, pH 7.4). Diclofenac (10 μL, 200 μM) was used as positive control (360 μL Microsomal solution, 360 μL NADP-regeneration mix and 40 μL Phosphate buffer) and phosphate buffer (360 μL Microsomal solution, 360 μL NADP-regeneration mix) served as negative control. […] The following procedure was applied: 40 μL of the working solution was added to a pre-incubated solution containing the microsomal solution and the NADP-regeneration mix at 37° C./1500 rpm. Samples were prepared as follows: […] Samples were mixed at 1500 rpm for 2 min, centrifuged for 2 min at 16.1 krcf. 5 uL of each sample was injected to a UPLC/HRMS system and the peak areas of the extracted ion chromatograms were determined
# [3] = molecular target: T1, thermolysin (Bacillus thermoproteolyticus, UniProt P00800); assay: Protease assay with azocasein: thermolysin; assay type: biochemical; conditions: 10 mM
# T1 construct: purchased Sigma-Aldrich P1512
# Method: (§1) Protease Assays with azocasein: Protease inhibition assays against the proteases papain, ficin, trypsin, pepsin and thermolysin were performed according to the protocol of Garcia-Carreño (loc. cit.) in a reaction buffer containing 25 mM TRIS-HCl, 0.15 M NaCl, pH 7.2 (or pH 3.5 for aspartic protease). The total assay volume was 47 μL buffer with 2 μL of the protease as well as 1 μL of suitable inhibitor or corresponding inhibitor solvent (100% MeoH or water). Final concentration of proteases was as follows: 2 mg/mL for papain (Sigma-Aldrich, P4762), 600 μg/mL for ficin (Sigma-Aldrich, F6008), 80 μg/mL for trypsin (Thermo Fisher, 23266), 60 mg/mL for pepsin (Sigma-Aldrich P6887)) and 2 μg/mL for thermolysin (Sigma-Aldrich, P1512).
# (§2) Inhibitors were dissolved in 100% MeOH or water and added to the assay (1 μL); final concentration: 2% MeOH. Samples of control inhibitors were prepared as follows: (1) serine protease (trypsin): PMFS (2 mM) and soybean trypsin inhibitor (240 μM) (Sigma-Aldrich, T1021), (2) cysteine proteases (papain and ficin): iodacetamide (2 mM), (3) […] (pepsin): pepstatin A (1 μg/mL) (Sigma-Aldrich, P4265), (4) metalloprotease (thermolysin): EDTA (10 mM). […] Negative controls were performed with protease alone (without inhibitor) and MeOH at a final concentration of 2% (reference for activity of 100%). Extract absorbance controls were performed using inhibitor (1 μL in MeOH) without protease. Blanks were performed using 49 μL buffer and 1 μL MeOH.
# (§3) Samples were incubated with buffer and suitable inhibitor (or without for negative controls) for 1 h at r.t. and the reaction was started afterward by adding 50 μl of […] substrate and incubated for 1 h at 37° C. After stopping the reaction with trichloracetic acid (TCA), the separation of the precipitate was accomplished by centrifugation at 6500 g for 5 min. The hydrolyzed substrate supernatant was incubated in an equal volume of 0.5 N NaOH for 5 min and the absorbance was measured at 440 nm. OD values of the protease control without inhibitor were used as reference for a 100% activity.
# (§4) The log IC50 values were determined using the standard curves analyzing tool with four parameter logistic equation of SigmaPlot12 with technical triplicates. Propagation of error was calculated using the standard error and log IC50 values where the equation of error propagation is defined as Δy=0.43Δx/x.
# [4] = molecular target: hCatL (Homo sapiens, UniProt P07711); assay: Fluorescence-based activity test against cathepsin L (Cbz-Phe-Arg-AMC); assay type: biochemical; design: dose or concentration left out as unconfirmed
# Method: (§5) Activity Tests Against Cathepsin B, Cathepsin L and Rhodesain.
# (§6) The determination of the activity of the inhibitors against hCatL and RD was performed in fluorescence-based assays in accordance with the assays described in Giroud et al., ChemMedChem 12 (2017), 257-270 and Schirmeister, Bioorganic & Medicinal Chemistry Letters 27 (2017) 45-50. The biological activities against hCatL were determined using Cbz-Phe-Arg-AMC as substrate, which releases AMC (7-amino-4-methylcoumarin) after amide bond cleavage by the enzyme. The proteolytic activity of the enzyme can be monitored spectrophotometrically by the increase of fluorescence intensity by release of AMC (emission at 460 nm) upon hydrolysis. An initial screen at an inhibitor concentration […] was performed to identify ligands with an inhibition of hCatL and RD higher than 80%.
# [5] = molecular target: Cathepsin B (Homo sapiens, UniProt P07858); assay: Activity test against cathepsin B (initial screen, Table 5); assay type: biochemical; design: dose or concentration left out as unconfirmed
# Method: as §5, §6
# [6] = molecular target: T2, pepsin (Sus scrofa, UniProt P00791); assay: Protease assay with azocasein: pepsin; assay type: biochemical; conditions: 1 μg/mL
# T2 construct: purchased Sigma-Aldrich P6887
# Method: as §1, §2, §3, §4
# hCatL, sequence (P07711 114-333): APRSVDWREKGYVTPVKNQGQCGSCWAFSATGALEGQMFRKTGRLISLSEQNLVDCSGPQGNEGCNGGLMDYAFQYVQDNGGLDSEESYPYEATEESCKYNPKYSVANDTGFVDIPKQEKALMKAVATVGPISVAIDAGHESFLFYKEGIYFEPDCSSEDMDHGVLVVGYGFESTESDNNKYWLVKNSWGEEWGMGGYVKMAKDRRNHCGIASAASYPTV
# T1 sequence (P00800 233-548): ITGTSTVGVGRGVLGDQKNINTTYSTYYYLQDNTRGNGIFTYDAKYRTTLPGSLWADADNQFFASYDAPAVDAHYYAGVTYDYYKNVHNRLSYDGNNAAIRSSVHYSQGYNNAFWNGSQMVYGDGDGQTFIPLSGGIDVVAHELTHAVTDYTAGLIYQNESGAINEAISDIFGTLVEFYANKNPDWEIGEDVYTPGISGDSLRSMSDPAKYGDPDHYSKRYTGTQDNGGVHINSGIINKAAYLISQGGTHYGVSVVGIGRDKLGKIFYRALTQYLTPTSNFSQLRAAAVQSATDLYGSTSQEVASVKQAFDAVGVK
# T2 sequence (P00791 60-385): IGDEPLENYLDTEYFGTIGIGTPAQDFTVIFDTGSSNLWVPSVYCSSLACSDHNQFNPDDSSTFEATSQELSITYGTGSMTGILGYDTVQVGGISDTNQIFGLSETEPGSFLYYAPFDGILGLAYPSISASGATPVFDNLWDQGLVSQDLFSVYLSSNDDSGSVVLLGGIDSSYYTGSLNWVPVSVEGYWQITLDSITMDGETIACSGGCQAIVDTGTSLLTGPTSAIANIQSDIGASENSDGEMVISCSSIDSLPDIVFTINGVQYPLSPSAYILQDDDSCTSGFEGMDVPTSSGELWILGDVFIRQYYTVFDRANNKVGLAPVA
smiles,measurement,setting,value
CCCCC/C=C/C(=O)N[C@H](Cc1ccc(O)cc1)C(=O)N[C@H](/C=C/C(=O)O)CCCNC(=N)N [drawing 55],"Area rel. [%] (GSH assay, NC)",[1],91.9%
same,Area rel. [%] (GSH assay),"[1]; pH 7.4, time 90 min",98.6%
"O=C(O)Cc1ccccc1Nc1c(Cl)cccc1Cl [Diclo, Diclofenac, reference compound]","Area rel. [%] (liver microsomes, PC)",[2]; time 10 min,49.0%
same,"Area rel. [%] (liver microsomes, PC)",[2]; time 35 min,3.8%
CC(=O)N[C@@H](Cc1ccc(O)cc1)C(=O)N[C@H](/C=C/C(=O)O)CCCNC(=N)N [drawing 66],"Area rel. [%] (liver microsomes, NC)",[2],111.9%
"O=C(O)CN(CCN(CC(=O)O)CC(=O)O)CC(=O)O [EDTA, reference compound]","inhibited enzyme activity (thermolysin), control inhibitor",[3],> 95%
CCCCC/C=C/C(=O)N[C@@H](Cc1ccc(O)cc1)C(=O)N[C@@H](/C=C/C(=O)O)CCCCN [drawing 46],inhibition,[4],96%
same,inhibition,[5],73%
"CC(C)CC(=O)N[C@H](C(=O)N[C@H](C(=O)N[C@@H](CC(C)C)[C@@H](O)CC(=O)N[C@@H](C)C(=O)N[C@@H](CC(C)C)[C@@H](O)CC(=O)O)C(C)C)C(C)C [pepstatin A, reference compound] (Isovaleryl-VV[Sta]A[Sta]-OH)","inhibited enzyme activity (pepsin), control inhibitor",[6],> 95%
CCCCC/C=C/C(=O)N[C@@H](Cc1ccccc1)C(=O)N[C@H](/C=C/C(=O)O)CCCNC(=N)N [drawing 53],"Area rel. [%] (GSH assay, NC)",[1],101.8%
same,Area rel. [%] (GSH assay),"[1]; pH 7.4, time 30 min",102.7%
same,Area rel. [%] (GSH assay),"[1]; pH 7.4, time 90 min",106.2%
CCCCC/C=C/C(=O)N[C@@H](Cc1ccc(O)cc1)C(=O)N[C@@H](/C=C/C(=O)O)CCCNC(=N)N [drawing 48],inhibition,[4],20%
same,inhibition,[5],15%
CCCCCCCC(=O)N[C@@H](Cc1ccc(O)cc1)C(=O)N[C@@H](CCCNC(=N)N)CCC(=O)O [drawing 65],"Area rel. [%] (liver microsomes, NC)",[2],99.5%
CCCCCCCC(=O)N[C@@H](Cc1ccc(O)cc1)C(=O)N[C@H](/C=C/C(=O)O)CCCNC(=N)N [drawing 64],"Area rel. [%] (liver microsomes, NC)",[2],104.3%
CCCCC/C=C/C(=O)N[C@@H](Cc1ccccc1)C(=O)N[C@H](/C=C/C(=O)O)CCCNC(=N)N [drawing 61],"Area rel. [%] (liver microsomes, NC)",[2],89.2%
CCCCC/C=C/C(=O)N[C@@H](Cc1ccc(O)cc1)C(=O)N[C@H](/C=C/C(=O)O)CCCNC(=N)N [drawing 45],inhibition,[4],95%
same,inhibition,[5],50%
CC(=O)N[C@@H](Cc1ccc(O)cc1)C(=O)N[C@H](/C=C/C(=O)O)CCCNC(=N)N [drawing 58],"Area rel. [%] (GSH assay, NC)",[1],108.9%
same,Area rel. [%] (GSH assay),"[1]; pH 7.4, time 90 min",112.8%
CCCCC/C=C/C(=O)N[C@@H](Cc1ccc(O)cc1)C(=O)N[C@@H](/C=C/C(=O)O)CCCCN [drawing 52],"Area rel. [%] (GSH assay, NC)",[1],103.9%
same,Area rel. [%] (GSH assay),"[1]; pH 7.4, time 30 min",104.3%
same,Area rel. [%] (GSH assay),"[1]; pH 7.4, time 90 min",98.0%
CCCCC/C=C/C(=O)N[C@@H](Cc1ccc(O)cc1)C(=O)N[C@H](/C=C/C(=O)O)CCCNC(=N)N [drawing 51],"Area rel. [%] (GSH assay, NC)",[1],91.9%
same,Area rel. [%] (GSH assay),"[1]; pH 7.4, time 30 min",93.3%
same,Area rel. [%] (GSH assay),"[1]; pH 7.4, time 90 min",94.2%
CCCCC/C=C/C(=O)N[C@@H](Cc1ccc(O)cc1)C(=O)N[C@H](/C=C/C(=O)O)CCCNC(=N)N [drawing 59],"Area rel. [%] (liver microsomes, NC)",[2],92.3%
CCCCCCCC(=O)N[C@@H](Cc1ccc(O)cc1)C(=O)N[C@H](/C=C/C(=O)O)CCCNC(=N)N [drawing 50],inhibition,[4],80%
same,inhibition,[5],30%
CCCCC/C=C/C(=O)N[C@@H](Cc1ccc(O)cc1)C(=O)N[C@@H](/C=C/C(=O)O)CCCCN [drawing 60],"Area rel. [%] (liver microsomes, NC)",[2],95.7%
CCCCC/C=C/C(=O)N[C@@H](Cc1ccc(O)cc1)C(=O)N[C@@H](/C=C/C(=O)O)CCCNC(=N)N [drawing 62],"Area rel. [%] (liver microsomes, NC)",[2],102.8%
CCCCC/C=C/C(=O)N[C@@H](Cc1ccccc1)C(=O)N[C@H](/C=C/C(=O)O)CCCNC(=N)N [drawing 47],inhibition,[4],90%
same,inhibition,[5],41%
CCCCC/C=C/C(=O)N[C@H](Cc1ccc(O)cc1)C(=O)N[C@H](/C=C/C(=O)O)CCCNC(=N)N [drawing 63],"Area rel. [%] (liver microsomes, NC)",[2],105.8%
